Data taken from the METLIN SMRT retention time set (Domingo-Almenara et al. 2019).

experiment: gradient 5% acetonitrile 3 min, to 50% in 2 min, to 85% in 15 min, held 3 min, 100 µL/min; settings: column: Zorbax Extend-C18 2.1 x 50 mm; eluents: water / acetonitrile, 0.1% formic acid
How it was run: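 Mixtures of ~100 pure standards were chromatographed on a Zorbax Extend-C18 column (2.1 × 50 mm, 1.8 μm) at 100 μL/min using water and acetonitrile, each with 0.1% formic acid. Detection used a quadrupole time-of-flight mass spectrometer in positive and negative ionization mode, and data collection spanned 3 months. Retention time was obtained from adduct peaks picked computationally and each checked manually.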

| Compound | RP-LC retention time |
| --- | --- |
| O=C(c1ccco1)N1CCCC1c1nc(-c2ccc(F)cc2F)no1 (stereo unspecified) | 860 s |
| COc1cc2nc(C(=O)N3CCCCC3)cc(Nc3ccc(C(C)C)cc3)c2cc1OC | 832 s |
| Cc1ccc(Cn2c(=O)n(CCNC(=O)CC(C)C)c3ncccc32)cc1 | 806 s |
| CCc1csc(-c2ccc(N3CCN(C(=O)c4c(F)cccc4F)CC3)nc2)n1 | 976 s |
| O=C(CS(=O)Cc1cnn(-c2ccccc2)c1-n1cccc1)N1CCCCCC1 (stereo unspecified) | 902 s |
| O=c1ccn(-c2ccc(Cl)cc2)nc1-c1nc(-c2cccc(F)c2)no1 | 954 s |
| CSc1ccc(NC(=O)NC2CCN(c3ccc(F)c(C)c3)C2=O)cc1 (stereo unspecified) | 873 s |
| O=C(Cn1nc(N2CCOCC2)c2ccccc2c1=O)Nc1ccc(F)cc1Cl | 816 s |
| O=C(NCC1CC(=O)N(c2ccc3c(c2)OCO3)C1)c1ccccc1F (stereo unspecified) | 664 s |
| Nc1nnc(SCc2nnc(-c3ccccc3)o2)s1 | 654 s |
| Cn1cc(C(=O)NCc2cccc(C(F)(F)F)c2)c2cccnc21 | 818 s |
| CCN(Cc1c(C)nn(CC)c1C)C(=O)Cn1nc2n(c1=O)CCC(N)CC2 (stereo unspecified) | 551 s |
| Cc1ccc(-c2ccc3nnc(CCC(=O)NC4CCC(C)CC4)n3n2)cc1C (stereo unspecified) | 854 s |
| CCC(=O)N1CCc2cc(N3CC(C(=O)Nc4cccc(OC)c4)CC3=O)ccc21 (stereo unspecified) | 750 s |
| O=C(N1CCC(NS(=O)(=O)Cc2ccccc2)CC1)N1C[C@H]2C[C@H](C1)[C@H]1CCCC(=O)N1C2 | 649 s |
| CCc1ccc(C2=C(C)C(N3CCCN(C(=O)c4ccco4)CC3)=NS2(=O)=O)cc1 | 838 s |
| Cc1[nH]c(=O)[nH]c(=O)c1CCC(=O)N1CCC(c2nc3ccccc3s2)CC1 | 592 s |
| CC(C)Oc1ccc(-c2noc(Cn3c(=O)n(Cc4ccccc4)c(=O)c4sccc43)n2)cc1 | 1170 s |

| Compound | RP-LC retention time |
| --- | --- |
| NC(=O)c1c([N+](=O)[O-])cc(C(F)(F)F)cc1[N+](=O)[O-] | 702 s |
| CCC(C)NC(=O)c1cc2c(s1)CCN(C(=O)c1ccccc1)C2 (stereo unspecified) | 769 s |
| Fc1ccccc1-c1ccc(CNCc2ccc3c(c2)OCO3)o1 | 695 s |
| COc1ccc(OC)c(CNC(=O)C2CCCN(c3nnc4ccc(Cl)cn34)C2)c1 (stereo unspecified) | 737 s |
| O=C(NCc1nc(-c2ccc3oc(-c4ccccc4)nc3c2)no1)c1ccccc1 | 1010 s |
| O=C(CSc1nc(N2CCCCC2)nc2ccccc12)Nc1cccc(Br)c1 | 812 s |
| COc1cc(NC(=O)N2CCN(c3cc(C)nc(N4CCCC4)n3)CC2)cc(OC)c1OC | 634 s |
| O=S(=O)(Cc1ccc(F)cc1)NCC1(c2ccccc2)CCOCC1 | 818 s |
| Cc1ccccc1CNC(=O)CN1C(=O)C(C)(C)c2ccccc21 | 874 s |
| Cc1cc2[nH]c(C(=O)Nc3ccc(Cl)cc3Cl)c(CN3CCOCC3)c2s1 | 759 s |
| CC1CN2C=NC(N3CCN(C(=O)Nc4ccc(F)cc4F)CC3)=CC2=N1 (stereo unspecified) | 664 s |
| O=C(Cn1nnc2ccccc2c1=O)Nc1nc2ccccc2[nH]1 | 597 s |
| O=C(Nc1cccc(F)c1)C1CCN(S(=O)(=O)c2cc(C(=O)N3CCCC3)cs2)CC1 | 829 s |
| CCOC(=O)N1CCc2c(sc(NC(=O)c3cc(C)on3)c2C(=O)OC)C1 | 949 s |
| CN(C)[C@@H]1CN(C(=O)COc2ccc(Cl)cc2)C[C@H]1CO | 598 s |
| Cc1ccc(CNC(=O)C2(C)CN(S(C)(=O)=O)CC(=O)N2c2ccc(F)cc2F)cc1 (stereo unspecified) | 814 s |
| Cc1cc(S(=O)(=O)N2CC(N(Cc3ccncc3)CC3CC3)C2)ccc1F | 709 s |
| CC(NC(=O)C(=O)N1CCOCC1)C(c1cccs1)N1CCN(c2ccccc2F)CC1 (stereo unspecified) | 692 s |
